IC50 data for 25 compounds are collected here from patent US20260042753A1 (Merck Patent GmbH, priority 2019, published 2026).

In test [1] the target is mutant cKIT (560-576 and V654A) in GIST430/654 cell line (Homo sapiens (Human), UniProt P10721, DEL560-576/V654A). The test is described as follows: Cellular testing of cKIT mutant inhibitors: phospho-Y307-cKIT Luminex assay in GIST430/654 cells. The note with it: Table 1; cKIT autophosphorylation, compounds 45 min; read-out: GIST 430/654 IC50. The test is classed as cell-based. As to the method: Assay Principle for Cellular Testing of cKIT Mutant Inhibitors
mutant cKIT (560-576 and V654A) in GIST430/654 cell line, sequence (P10721 other isoform, or with tags, fused parts or gaps V654A/del 1-25/del 560-576 limits assumed): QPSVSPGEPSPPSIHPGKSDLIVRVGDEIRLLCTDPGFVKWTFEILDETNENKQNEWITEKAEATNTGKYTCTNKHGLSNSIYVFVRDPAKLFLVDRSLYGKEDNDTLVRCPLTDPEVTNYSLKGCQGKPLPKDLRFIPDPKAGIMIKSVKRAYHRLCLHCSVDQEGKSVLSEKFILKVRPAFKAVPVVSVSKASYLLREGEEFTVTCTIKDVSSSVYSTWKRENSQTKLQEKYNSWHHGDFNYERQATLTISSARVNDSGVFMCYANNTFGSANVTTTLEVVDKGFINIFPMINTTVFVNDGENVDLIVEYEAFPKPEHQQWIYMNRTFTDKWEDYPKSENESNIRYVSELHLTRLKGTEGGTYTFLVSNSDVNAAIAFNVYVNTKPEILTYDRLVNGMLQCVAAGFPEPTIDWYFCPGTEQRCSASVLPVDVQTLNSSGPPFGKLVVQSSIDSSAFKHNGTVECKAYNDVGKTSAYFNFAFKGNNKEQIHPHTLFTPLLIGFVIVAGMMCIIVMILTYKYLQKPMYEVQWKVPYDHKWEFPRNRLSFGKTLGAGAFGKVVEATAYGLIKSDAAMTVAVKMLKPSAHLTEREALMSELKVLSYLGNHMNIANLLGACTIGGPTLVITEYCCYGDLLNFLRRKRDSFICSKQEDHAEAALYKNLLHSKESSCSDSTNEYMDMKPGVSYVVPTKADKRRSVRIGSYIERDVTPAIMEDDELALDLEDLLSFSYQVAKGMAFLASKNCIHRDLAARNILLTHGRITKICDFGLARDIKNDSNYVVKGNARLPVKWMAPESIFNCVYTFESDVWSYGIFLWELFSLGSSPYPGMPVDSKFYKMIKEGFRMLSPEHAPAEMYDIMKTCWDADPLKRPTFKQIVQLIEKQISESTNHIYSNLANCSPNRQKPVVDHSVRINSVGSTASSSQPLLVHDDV
The GIST430/654 cell line expressing mutated constitutively active cKIT receptor tyrosine kinase ([…]560-576 and V654A) was employed for assessing cellular potency of compounds. Cellular activity of mutant cKIT was determined by the degree of cKIT autophosphorylation at tyrosine 307 using a Luminex-based bead assay. GIST430/654 cells were plated with 25,000 cells per well of a 96-well plate in 100 μl medium (85% IMDM/15% FCS supplemented with 100 nM Imatinib). At the following day compounds were added in a serial dilution for 45 min. Then, cells were lysed with 90 μl lysis buffer (20 mM Hepes pH 7.5, 200 mM NaCl, 1.5 mM MgCl2×6H2O, 0.4 mM EDTA, 1% Triton-X-100, 1% Phosphatase-Inhibitor II, 20 mM D-Glycerolphosphat, 0.1% Protease-Inhibitor Cocktail III, 0.01% Benzonase) und lysates were cleared by centrifugation through a 96-well filter plate (0.65 μm). Samples were incubated with Luminex-beads which were coupled with an anti-total cKIT antibody overnight at 4° C. under gentle agitation. For detection of phospho-Y307-cKIT a phosphospecific antibody and a species-specific PE-labelled secondary antibody were added. The amount of phospho-Y307-cKIT was determined in a Luminex 200 instrument measuring 100 events per well within 60 seconds.
Counts from samples treated with compounds were calculated as percent of control from solvent treated (0.3% DMSO) samples. Dose-response curves were fitted and IC50 values were determined using Genedata Screener software.

In another test the target is c-Kit(V654A) (Homo sapiens, UniProt P10721, V654A). The test is described as follows: c-Kit(V654A) assay. The test is classed as biochemical. The note with it: Table 1; 200 μM ATP. As to the method:
c-Kit(V654A) (N-terminal GST-tagged, recombinant human c-Kit, amino acids 544-end containing the V654A mutation) is incubated with 8 mM MOPS pH 7.0, 0.2 mM EDTA, 250 μM GGMEDIYEFMGGKKK, 10 mM MgAcetate and [gamma-33P-ATP](specific activity approx. 500 cpm/pmol, concentration 200 μM). The reaction is initiated by the addition of the MgATP mix. After incubation for 40 minutes at room temperature, the reaction is stopped by the addition of 3% phosphoric acid solution. 10 μL of the reaction is then spotted onto a P30 filtermat and washed three times for 5 minutes in 75 mM phosphoric acid and once in methanol prior to drying and scintillation counting.

For `COCCOc1cc2[nH]nc(-c3cc(-c4ccc(C(=O)N5CCC[C@H]5CS(C)(=O)=O)cc4)no3)c2cc1F` [A7, 5-fluoro-3-(3-{4-[(2S)-2-(methanesulfonylmethyl)pyrrolidine-1-carbonyl]phenyl}-1,2-oxazol-5-yl)-6-(2-methoxyethoxy)-1H-indazole], the IC50 in test [1] is 40 nM; on c-Kit(V654A), 0.75 nM.
For `Cn1cc(-c2ccc3c(-c4cc(-c5ccc(C(=O)N6CCC[C@@H]6C(C)(C)O)cc5)no4)n[nH]c3c2)cn1` [A8, 2-[(2R)-1-(4-{5-[6-(1-methyl-1H-pyrazol-4-yl)-1H-indazol-3-yl]-1,2-oxazol-3-yl}benzoyl)pyrrolidin-2-yl]propan-2-ol], the IC50 in test [1] is 280 nM; against c-Kit(V654A), 20 nM.
In the case of `C[C@H]1CN(C)CCN1C(=O)c1ccc(-c2cc(-c3n[nH]c4cc(-c5cnn(C)c5)ccc34)on2)cc1` [A9, 3-(3-{4-[(2S)-2,4-dimethylpiperazine-1-carbonyl]phenyl}-1,2-oxazol-5-yl)-6-(1-methyl-1H-pyrazol-4-yl)-1H-indazole], the IC50 in test [1] amounted to 130 nM; against c-Kit(V654A), 8.8 nM.
The like results for `COCCOc1cc2[nH]nc(-c3cc(-c4ccc(C(=O)N5CCN(C)C[C@@H]5C)cc4)on3)c2cc1Cl` [A10, 5-chloro-3-(5-{4-[(2S)-2,4-dimethylpiperazine-1-carbonyl]phenyl}-1,2-oxazol-3-yl)-6-(2-methoxyethoxy)-1H-indazole] were, in that order, 180 nM and 1.6 nM.
For `COCCOc1cc2[nH]nc(-c3cc(-c4ccc(C(=O)N5CCN(C)C[C@@H]5C)cc4)on3)c2cc1C#N` [A11, 3-(5-{4-[(2S)-2,4-dimethylpiperazine-1-carbonyl]phenyl}-1,2-oxazol-3-yl)-6-(2-methoxyethoxy)-1H-indazole-5-carbonitrile] the same measures were 170 nM and 2.4 nM.
The like results for `COCCOc1cc2[nH]nc(-c3cc(-c4ccc(C(=O)N(C)C)cc4)no3)c2cc1Cl` [A12, 4-{5-[5-chloro-6-(2-methoxyethoxy)-1H-indazol-3-yl]-1,2-oxazol-3-yl}-N,N-dimethylbenzamide] were, in that order, 160 nM and 0.91 nM.
For the compound `COCCOc1cc2[nH]nc(-c3cc(-c4ccc(C)nc4)no3)c2cc1Cl` [A13, 5-chloro-6-(2-methoxyethoxy)-3-[3-(6-methylpyridin-3-yl)-1,2-oxazol-5-yl]-1H-indazole], the IC50 in test [1] worked out at 300 nM; against c-Kit(V654A) it was 11 nM.
For `COCCOc1cc2[nH]nc(-c3cc(-c4ccc(-n5cncn5)cc4)no3)c2cc1Cl` [A14, 5-chloro-6-(2-methoxyethoxy)-3-{3-[4-(1H-1,2,4-triazol-1-yl)phenyl]-1,2-oxazol-5-yl}-1H-indazole], the IC50 was determined as 510 nM in test [1] and 8.8 nM on c-Kit(V654A).
The like results for `COCCOc1cc2[nH]nc(-c3cc(-c4ccc(S(C)(=O)=O)cc4)no3)c2cc1Cl` [A15, 5-chloro-3-[3-(4-methanesulfonylphenyl)-1,2-oxazol-5-yl]-6-(2-methoxyethoxy)-1H-indazole] were, in that order, 240 nM and 5.8 nM.
For `COCCOc1cc2[nH]nc(-c3cc(-c4ccc(S(C)(=O)=O)cc4)no3)c2cc1F` [A16, 5-fluoro-3-[3-(4-methanesulfonylphenyl)-1,2-oxazol-5-yl]-6-(2-methoxyethoxy)-1H-indazole], the IC50 in test [1] stood at 94 nM; on c-Kit(V654A) it was 4.8 nM.
For `COCCOc1cc2[nH]nc(-c3cc(-c4ccc(NC(C)=O)cc4)no3)c2cc1Cl` [A17, N-(4-{5-[5-chloro-6-(2-methoxyethoxy)-1H-indazol-3-yl]-1,2-oxazol-3-yl}phenyl)acetamide] the same measures were 130 nM and 5.3 nM.
Turning to `COCCOc1cc2[nH]nc(-c3cc(-c4ccc(NC(C)=O)cc4)no3)c2cc1F` [A18, N-(4-{5-[5-fluoro-6-(2-methoxyethoxy)-1H-indazol-3-yl]-1,2-oxazol-3-yl}phenyl)acetamide], the results for the IC50 (in test [1]; on c-Kit(V654A)) were 160 nM and 8.2 nM, respectively.
The like results for `COCCOc1cc2[nH]nc(-c3cc(-c4ccc(C(=O)N(C)C)cc4)no3)c2cc1F` [A20, 4-{5-[5-fluoro-6-(2-methoxyethoxy)-1H-indazol-3-yl]-1,2-oxazol-3-yl}-N,N-dimethylbenzamide] were, in that order, 48 nM and 1.7 nM.
For `COCCOc1cc2[nH]nc(-c3cc(-c4ccc(-n5cncn5)cc4)no3)c2cc1F` [A21, 5-fluoro-6-(2-methoxyethoxy)-3-{3-[4-(1H-1,2,4-triazol-1-yl)phenyl]-1,2-oxazol-5-yl}-1H-indazole] the same measures were 570 nM and 12 nM.
The like results for `COCCOc1cc2[nH]nc(-c3cc(-c4ccc(C)nc4)no3)c2cc1F` [A22, 5-fluoro-6-(2-methoxyethoxy)-3-[3-(6-methylpyridin-3-yl)-1,2-oxazol-5-yl]-1H-indazole] were, in that order, 2200 nM and 32 nM.
For `COCCNC(=O)c1ccc2c(-c3cc(-c4ccc(C(=O)N(C)C)cc4)no3)n[nH]c2c1` [A25, 3-{3-[4-(dimethylcarbamoyl)phenyl]-1,2-oxazol-5-yl}-N-(2-methoxyethyl)-1H-indazole-6-carboxamide], the IC50 in test [1] is 5700 nM; against c-Kit(V654A) it was 30 nM.
The like results for `COCCOc1cc2[nH]nc(-c3cc(-c4ccc(C(=O)N5CC(F)C5)cc4)no3)c2cc1F` [A26, 5-fluoro-3-{3-[4-(3-fluoroazetidine-1-carbonyl)phenyl]-1,2-oxazol-5-yl}-6-(2-methoxyethoxy)-1H-indazole] were, in that order, 45 nM and 2.1 nM.
Take `COCCOc1cc2[nH]nc(-c3cc(-c4ccc(C(=O)N5CC[C@@H](F)C5)cc4)no3)c2cc1F` [A27, 5-fluoro-3-(3-{4-[(3R)-3-fluoropyrrolidine-1-carbonyl]phenyl}-1,2-oxazol-5-yl)-6-(2-methoxyethoxy)-1H-indazole]: the IC50 in test [1] was determined as 57 nM; at c-Kit(V654A), 1.2 nM.
Turning to `COCCOc1cc2[nH]nc(-c3cc(-c4ccc(C(=O)N5CC(C#N)C5)cc4)no3)c2cc1F` [A28, 1-(4-{5-[5-fluoro-6-(2-methoxyethoxy)-1H-indazol-3-yl]-1,2-oxazol-3-yl}benzoyl)azetidine-3-carbonitrile], the results for the IC50 (in test [1]; at c-Kit(V654A)) were 39 nM and 2 nM, respectively.
On to `COCCOc1cc2[nH]nc(-c3cc(-c4ccc(C(=O)N5CC(S(C)(=O)=O)C5)cc4)no3)c2cc1F` [A29, 5-fluoro-3-{3-[4-(3-methanesulfonylazetidine-1-carbonyl)phenyl]-1,2-oxazol-5-yl}-6-(2-methoxyethoxy)-1H-indazole], for which the IC50 in test [1] was 390 nM; against c-Kit(V654A), 0.95 nM.
For the compound `COCCOc1cc2[nH]nc(-c3cc(-c4ccc(C(=O)N5CCS(=O)(=O)CC5)cc4)no3)c2cc1F` [A30, 4-(4-{5-[5-fluoro-6-(2-methoxyethoxy)-1H-indazol-3-yl]-1,2-oxazol-3-yl}benzoyl)-1lambda6-thiomorpholine-1,1-dione], the IC50 in test [1] turned out to be 56 nM; against c-Kit(V654A), 0.73 nM.
As for `COCCOc1cc2[nH]nc(-c3cc(-c4ccc(C(=O)N(C)C5CC5)cc4)no3)c2cc1F` [A31, N-cyclopropyl-4-{5-[5-fluoro-6-(2-methoxyethoxy)-1H-indazol-3-yl]-1,2-oxazol-3-yl}-N-methylbenzamide], the IC50 in test [1] is 35 nM; at c-Kit(V654A), 1.1 nM.
Regarding `COCCOc1cc2[nH]nc(-c3cc(-c4ccc(C(=O)N5CC[C@H](F)C5)cc4)no3)c2cc1F` [A32, 5-fluoro-3-(3-{4-[(3S)-3-fluoropyrrolidine-1-carbonyl]phenyl}-1,2-oxazol-5-yl)-6-(2-methoxyethoxy)-1H-indazole], the IC50 in test [1] stood at 39 nM; on c-Kit(V654A), 0.91 nM.
The like results for `COCCOc1cc2[nH]nc(-c3cc(-c4ccc(C(=O)N5CC(OC)C5)cc4)no3)c2cc1F` [A33, 5-fluoro-3-{3-[4-(3-methoxyazetidine-1-carbonyl)phenyl]-1,2-oxazol-5-yl}-6-(2-methoxyethoxy)-1H-indazole] were, in that order, 61 nM and 1.3 nM.
Turning to `COCCOc1cc2[nH]nc(-c3cc(-c4ccc(C(=O)N5CC(C)(O)C5)cc4)no3)c2cc1F` [A34, 1-(4-{5-[5-fluoro-6-(2-methoxyethoxy)-1H-indazol-3-yl]-1,2-oxazol-3-yl}benzoyl)-3-methylazetidin-3-ol], the IC50 came out at 120 nM in test [1] and 0.83 nM at c-Kit(V654A).
